The subject of one test is PI3K α, β or γ isoform. Put plainly: Selectivity for the δ isoform by corresponding assay using the corresponding PI3K isoform. As to conditions: δ versus α. Format: biochemical. How it is done: PI3K delta enzyme assay based on Scintillation Proximity Assay (SPA) technology. Human PI3K delta is expressed as a recombinant protein in insect cells. PI3K delta activity is assayed by measuring the phosphorylation of phosphatidylinositol (PI) using a scintillation proximity assay. Briefly, the kinase reaction is performed in a final volume of 50 μl/well. The final concentrations of ATP and PI in the assay are 5 μM and 6 μg/ml, respectively. The reaction is started by the addition of PI3K delta and terminated by the addition of 50 μl Wheatgerm agglutinin SPA beads after 90 minutes of incubation at room temperature.

A further test addresses T1, Human PI3K delta (Homo sapiens, UniProt O00329).
T1 construct: fused on or other part: CaaX box (isoprenylation / membrane-targeting signal) added at the C-terminal end
T1 sequence (O00329 1-1044): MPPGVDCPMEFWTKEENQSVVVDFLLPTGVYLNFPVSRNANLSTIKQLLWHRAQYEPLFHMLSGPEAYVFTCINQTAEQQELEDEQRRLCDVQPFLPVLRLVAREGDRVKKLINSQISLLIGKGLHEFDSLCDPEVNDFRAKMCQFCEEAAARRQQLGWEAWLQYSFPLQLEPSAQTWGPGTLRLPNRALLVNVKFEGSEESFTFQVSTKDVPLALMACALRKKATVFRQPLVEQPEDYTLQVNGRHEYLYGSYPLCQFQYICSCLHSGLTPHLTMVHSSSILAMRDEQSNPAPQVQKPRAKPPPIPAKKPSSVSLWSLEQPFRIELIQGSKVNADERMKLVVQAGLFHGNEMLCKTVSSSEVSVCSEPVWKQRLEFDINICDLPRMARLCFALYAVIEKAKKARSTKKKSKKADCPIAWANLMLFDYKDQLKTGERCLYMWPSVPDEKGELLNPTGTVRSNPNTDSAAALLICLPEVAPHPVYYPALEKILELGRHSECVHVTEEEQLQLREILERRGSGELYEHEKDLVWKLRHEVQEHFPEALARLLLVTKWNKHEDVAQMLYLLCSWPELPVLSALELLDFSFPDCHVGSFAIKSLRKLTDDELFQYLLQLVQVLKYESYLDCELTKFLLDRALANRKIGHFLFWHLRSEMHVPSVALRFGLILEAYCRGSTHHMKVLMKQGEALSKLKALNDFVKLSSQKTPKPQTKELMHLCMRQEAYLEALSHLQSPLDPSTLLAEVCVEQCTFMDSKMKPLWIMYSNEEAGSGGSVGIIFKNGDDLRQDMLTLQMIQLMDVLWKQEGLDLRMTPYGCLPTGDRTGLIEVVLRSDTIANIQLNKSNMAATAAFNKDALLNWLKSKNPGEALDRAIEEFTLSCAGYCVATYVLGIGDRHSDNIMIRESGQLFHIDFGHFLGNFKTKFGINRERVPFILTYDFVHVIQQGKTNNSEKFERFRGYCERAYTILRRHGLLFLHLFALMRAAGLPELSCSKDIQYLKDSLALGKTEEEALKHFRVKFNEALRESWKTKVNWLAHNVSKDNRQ
Put plainly: Cellular PI3K delta assay (Akt phosphorylation in transfected Rat-1 cells). Format: cell-based. The following applies: Rat-1 cells transfected with human PI3K delta CaaX construct, phospho Akt ELISA; read-out: IC50 PI3K delta-dependent Akt phosphorylation. The source says: Cellular PI3K delta assay. Rat-1 cells are transiently transfected with a human PI3K delta construct (pcDNA3 PIK3 delta containing a CaaX box at the C-terminal end) using the FUGENE transfection kit. The CaaX box signals for the attachment of an isoprenoid moiety which activates PI3K delta by targeting it to intracellular membranes/the plasma membrane. Subsequent, PI3K delta-dependent Akt phosphorylation is quantified in presence and absence of compounds to be tested using the phospho Akt ELISA kit from R&D Systems.
In general terms: ELISA stands for enzyme-linked immunosorbent assay.

The test system of test [1] is spleen cells of nu/nu Balb/c mice. Put plainly: B cell proliferation assay (anti-IgM stimulated spleen cells). The class given is cell-based. As to conditions: anti-mouse IgM 5 μg/ml, 3 days, [3H] thymidine incorporation. The protocol: B cell proliferation assay. A spleen cell suspension of nu/nu Balb/c mice is prepared and adjusted to 2×10^6 cells/ml in complete Iscoves Medium followed by the addition of 10 μg/ml monoclonal anti-mouse IgM antibody (clone b-7-6). Compounds to be rested are dissolved in DMSO at 10 mM and diluted in complete Iscoves Medium. […] Plates are incubated for 3 days at 37° C. and 5% CO2. Cell proliferation is measured by incorporation of [^3H] thymidine following a 16 hours pulse.
In general terms: Dividing cells build labelled thymidine or BrdU into new DNA.

In test [2] the test system is spleen cells from CBA and BALB/c mice. Put plainly: Mixed lymphocyte reaction (two-way MLR). The class given is cell-based. As to conditions: Mus musculus, four days of incubation, 3H-thymidine incorporation. How it is done: Mixed lymphocyte reaction (MLR). A two-way MLR is performed according to standard procedures. Briefly, spleen cells from CBA and BALB/c mice (1.6×10^5 cells from each strain per well in flat bottom tissue culture microtiter plates, 3.2×10^5 in total) are incubated in RPMI medium containing 10% fetal calf serum, 100 U/ml penicillin, 100 μg/ml streptomycin, 50 μM 2-mercaptoethanol and serially diluted compounds to be tested. After four days of incubation 1 μCi [^3H] thymidine is added to the cultures. Cells are harvested after an additional five-hour incubation period, and incorporated ^3H-thymidine is determined according to standard procedures. […] In this assay, the compounds of formula I have ICsovalues ranging from 20 nM to 200 nM.

Regarding `Cc1cc(NC(=O)CCNC(=O)Nc2nc(C)c(-c3ccc(-n4cccn4)cc3)s2)no1` [Example 2, N-(5-Methyl-isoxazol-3-yl)-3-{3-[4-methyl-5-(4-pyrazol-1-yl-phenyl)-thiazol-2-yl]-ureido}-propionamide], in the test on PI3K α, β or γ isoform, the “selectivity for the δ isoform over the α, β or γ isoform (ratio of IC50 values)” value was “at least 10 fold”. For the same compound, the IC50 at Human PI3K delta worked out at 22 nM; in test [1] it was 15 nM; in test [2], 26 nM.

The values are drawn from patent publication US7799810B2, “Organic compounds” (Novartis AG, priority 2006, dated 2010).
